# Test results as given in PubChem BioAssay (NCI).
#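 Method: 48-hour compound exposure of cells in 96-well plates, five concentrations, linear interpolation of endpoints. Here, GI50 denotes the concentration required for 50% inhibition of growth. At the TGI there is no net growth.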
# Tests used:
# Assay in all cases: NCI-60 cell line screen, 48 h
# [1] = system: KM12 colon
# [2] = system: HOP-62 NSCLC
# [3] = system: HCC-2998 colon
# [4] = system: PC-3 prostate
# [5] = system: CCRF-CEM leukemia
# [6] = system: LOX IMVI melanoma
# [7] = system: SK-MEL-5 melanoma
# [8] = system: SK-OV-3 ovarian
# [9] = system: EKVX NSCLC
# [10] = system: MCF7 breast
# [11] = system: RXF 393 renal
# [12] = system: MDA-MB-435
# [13] = system: M14 melanoma
# [14] = system: MALME-3M melanoma
# [15] = system: SNB-75 CNS
# [16] = system: SF-539 CNS
# [17] = system: SW-620 colon
# [18] = system: NCI-H226 lung
# [19] = system: UO-31 renal
# [20] = system: UACC-62 melanoma
# [21] = system: CAKI-1 renal
# [22] = system: UACC-257 melanoma
# [23] = system: HOP-92 NSCLC
# [24] = system: SK-MEL-28 melanoma
# [25] = system: BT-549 breast
# [26] = system: SF-295 CNS
# [27] = system: A498 renal
# [28] = system: SF-268 CNS
# [29] = system: NCI/ADR-RES ovarian
# [30] = system: SN12C renal
# [31] = system: HS 578T breast
# [32] = system: OVCAR-4 ovarian
# [33] = system: TK-10 renal
# [34] = system: NCI-H460 lung
# [35] = system: HT29 colon
# [36] = system: U251 CNS
# [37] = system: RPMI-8226 leukemia
# [38] = system: SNB-19 CNS
# [39] = system: A549 NSCLC
# [40] = system: IGROV1 ovarian
# [41] = system: T-47D breast
# [42] = system: DU-145 prostate
# [43] = system: 786-0 renal
# [44] = system: SR leukemia
# [45] = system: OVCAR-5 ovarian
# [46] = system: NCI-H23 lung
# [47] = system: MDA-MB-231 breast
# [48] = system: ACHN renal
# [49] = system: MOLT-4 leukemia
# [50] = system: HL-60(TB) leukemia
structure (smiles),measurement,setting,value
Cc1ccc(-c2csc(N/N=C/c3nc4ccccc4n3C3CC3)n2)cc1,GI50,[1],16.3 µM
same,TGI,[1],59.8 µM
same,GI50,[2],3.67 µM
same,TGI,[2],49.7 µM
same,GI50,[3],16.2 µM
same,TGI,[3],46.5 µM
same,GI50,[4],12 µM
same,TGI,[4],25.7 µM
same,GI50,[5],2.15 µM
same,TGI,[5],5.39 µM
same,GI50,[6],4.61 µM
same,TGI,[6],36.4 µM
same,GI50,[7],2.04 µM
same,TGI,[7],11.4 µM
same,GI50,[8],8.53 µM
same,TGI,[8],> 100 µM
same,GI50,[9],21 µM
same,TGI,[9],55.9 µM
same,GI50,[10],1.92 µM
same,TGI,[10],4.39 µM
same,GI50,[11],1.95 µM
same,TGI,[11],4.46 µM
same,GI50,[12],10.5 µM
same,TGI,[12],23.6 µM
same,GI50,[13],1.75 µM
same,TGI,[13],3.43 µM
same,GI50,[14],1.99 µM
same,TGI,[14],3.84 µM
same,GI50,[15],1.86 µM
same,TGI,[15],3.9 µM
same,GI50,[16],12.2 µM
same,TGI,[16],27.5 µM
same,GI50,[17],1.62 µM
same,TGI,[17],3.29 µM
same,GI50,[18],8.34 µM
same,TGI,[18],> 100 µM
same,GI50,[19],1.6 µM
same,TGI,[19],3.05 µM
same,GI50,[20],16.5 µM
same,TGI,[20],31 µM
same,GI50,[21],1.52 µM
same,TGI,[21],3.07 µM
same,GI50,[22],1.51 µM
same,TGI,[22],2.93 µM
same,GI50,[23],1.65 µM
same,TGI,[23],3.13 µM
same,GI50,[24],1.82 µM
same,TGI,[24],3.35 µM
same,GI50,[25],4.47 µM
same,TGI,[25],17.6 µM
same,GI50,[26],45.5 µM
same,TGI,[26],> 100 µM
same,GI50,[27],14.4 µM
same,TGI,[27],33.6 µM
same,GI50,[28],4.21 µM
same,TGI,[28],21.1 µM
same,GI50,[29],13.6 µM
same,TGI,[29],> 100 µM
same,GI50,[30],8.55 µM
same,TGI,[30],31.5 µM
same,GI50,[31],11.7 µM
same,TGI,[31],57 µM
same,GI50,[32],1.74 µM
same,TGI,[32],3.33 µM
same,GI50,[33],1.68 µM
same,TGI,[33],3.05 µM
same,GI50,[34],7.72 µM
same,TGI,[34],27.1 µM
same,GI50,[35],1.84 µM
same,TGI,[35],3.48 µM
same,GI50,[36],2.72 µM
same,TGI,[36],8.33 µM
same,GI50,[37],1.95 µM
same,TGI,[37],4.71 µM
same,GI50,[38],5.19 µM
same,TGI,[38],79.4 µM
same,GI50,[39],5.55 µM
same,TGI,[39],26.9 µM
same,GI50,[40],5.73 µM
same,TGI,[40],35.9 µM
same,GI50,[41],2.14 µM
same,TGI,[41],5.27 µM
same,GI50,[42],1.83 µM
same,TGI,[42],3.42 µM
same,GI50,[43],4.12 µM
same,TGI,[43],16 µM
same,GI50,[44],2.02 µM
same,TGI,[44],5.63 µM
same,GI50,[45],17.6 µM
same,TGI,[45],39.5 µM
same,GI50,[46],20 µM
same,TGI,[46],61 µM
same,GI50,[47],10.6 µM
same,TGI,[47],41.4 µM
same,GI50,[48],1.58 µM
same,TGI,[48],3.08 µM
same,GI50,[49],2.18 µM
same,TGI,[49],4.75 µM
same,GI50,[50],1.86 µM
same,TGI,[50],4.38 µM
